# Reference: patent US20100041089A1, “IMPROVED METHOD FOR DETECTING CHEMICAL […]” (priority 2006, published 2010)
# Tested on: yeast genes (expressed mRNA)
# Assay: DNA chip measurement of expressed mRNA of yeast genes after culture with a toxic chemical substance
# Format: cell-based, Saccharomyces cerevisiae S288C
# Description: Yeast (Saccharomyces cerevisiae S288C (a SUC2mal mel gap2 CUP1)) were cultured at 25° C. on YPD medium (yeast extract 1%, polypeptone 2%, glucose 2%). One of toxic chemical substances was added to the cell at logarithmic growth phase, and the cell was further cultured for two hours. Cell was cultured without any chemical substance in the same condition, and was used as a control. Concentrations of the chemical substances were defined to inhibit the growth of the yeast but not lead to death.
# After the completion of cultivation, the culture was centrifuged to collect the cells. To the cells, sodium acetate buffer (50 mM sodium acetate, 10 mM EDTA, 1% SDS) was added, and the mixture was shaken at 65° C. for five minutes, followed by returning to room temperature, and obtaining the supernatant, which procedure was repeated two times. To the supernatant, ½ amount of a solution of phenol/chloroform (1:1) was added, and the mixture was centrifuged to give a supernatant, an equal amount of chloroform was added, and the mixture was centrifuged to give a supernatant. To the supernatant, an equal amount of isopropanol containing 0.3 M sodium acetate was added, and the mixture was allowed to stand at room temperature for 30 minutes, after which the mixture was centrifuged to give sediment of the whole RNAs. Seventy % ethanol was added to the sediment, and the mixture was again centrifuged to give sediment, which was then dried and dissolved in water. mRNA was isolated from the whole RNAs as followings. In view of the fact that a poly A chain is attached to the 3′ terminus of mRNA, a polynucleotide having a poly T structure which was immobilized on the surface of latex beads was used to trap the mRNA, and then the mRNA was washed and eluted with spine column (Oligotex-dT30<Super>mRNA Purification Kit, Takara). Reverse transcription of the mRNA was conducted with a reverse transcriptase (Super Script II Reverse Transcriptase; catalogue No. 18064-014, GibcoBRL) using fluorescence-labeled nucleotides to give cDNAs that were introduced with Cy3-dUTP or Cy5-dUTP during the reverse transcription.
# The labeled cDNAs were dissolved in TE buffer (10 mM Tris-HCl/1 mM EDTA, pH 8.0), and the solution was dropped on the DNA chip containing the whole genes of yeast (DNA Chip Research Inc. Japan) so that the cDNAs were hybridized on the DNA chip at 65° C. for over 12 hours. The fluoresces intensity of the DNA chip was read with a scanner, and the ratio relative to the fluorescence intensity resulting from the absence of chemical substance was estimated as the following, which is shown in Tables 1 to 9.
# In the Tables, “Intensity” indicated in the rightmost column is a value of the level of expressed mRNA of each gene in control cells as divided by the average level of the expressions of the whole genes. A gene of which mRNA level is lower in control, and is higher in cases of addition of chemical substance, is especially useful in the detection of toxic substances.
# Here, when a ratio of an amount of mRNA expressed in the presence of the chemical substance to an amount of mRNA expressed in the absence of the chemical substance is two or more, then it is considered significant.
compound,measurement,setting,value
"C[S+](C)[O-] [(15), Dimethyl sulfoxide]",The level of expressed mRNA in the presence of chemical substance/The level of expressed mRNA in the absence of chemical substance,yeast gene YDR497C (transport facilitation protein gene),10.1
same,The level of expressed mRNA in the presence of chemical substance/The level of expressed mRNA in the absence of chemical substance,"yeast gene YDR511W, cultured two hours with substance",0.8
same,The level of expressed mRNA in the presence of chemical substance/The level of expressed mRNA in the absence of chemical substance,"yeast gene YDR520C, cultured two hours with substance",1.3
same,The level of expressed mRNA in the presence of chemical substance/The level of expressed mRNA in the absence of chemical substance,"yeast gene YER014W, mitochondria-located protein gene, cultured two hours with substance",2.3
same,The level of expressed mRNA in the presence of chemical substance/The level of expressed mRNA in the absence of chemical substance,"yeast gene YER038C, cultured two hours with substance",0.8
same,The level of expressed mRNA in the presence of chemical substance/The level of expressed mRNA in the absence of chemical substance,"yeast gene YER106W, cultured two hours with substance",6.8
same,The level of expressed mRNA in the presence of chemical substance/The level of expressed mRNA in the absence of chemical substance,"yeast gene YER175C, cultured two hours with substance",1.3
same,level of expressed mRNA in the presence of chemical substance / level in the absence of chemical substance,"yeast gene YFR026C, cultured two hours with the chemical substance",2.3
same,The level of expressed mRNA in the presence of chemical substance/The level of expressed mRNA in the absence of chemical substance,"yeast gene YGL037C, cultured two hours with substance",0.8
same,level of expressed mRNA in the presence of chemical substance / level in the absence of chemical substance,"yeast gene YGL088W, cultured two hours with the chemical substance",0.4
same,The level of expressed mRNA in the presence of chemical substance/The level of expressed mRNA in the absence of chemical substance,"yeast gene YGL204C, cultured two hours with substance",0.8
same,The level of expressed mRNA in the presence of chemical substance/The level of expressed mRNA in the absence of chemical substance,"yeast gene YGL259W, cultured two hours with substance",1.3
same,The level of expressed mRNA in the presence of chemical substance/The level of expressed mRNA in the absence of chemical substance,"yeast gene YGR010W, cultured two hours with substance",1.3
same,level of expressed mRNA in the presence of chemical substance / level in the absence of chemical substance,"yeast gene YGR038W, cultured two hours with the chemical substance",1.1
same,level of expressed mRNA in the presence of chemical substance / level in the absence of chemical substance,"yeast gene YGR139W, cultured two hours with the chemical substance",2.3
same,The level of expressed mRNA in the presence of chemical substance/The level of expressed mRNA in the absence of chemical substance,"yeast gene YGR141W, cultured two hours with the substance",2.6
same,The level of expressed mRNA in the presence of chemical substance/The level of expressed mRNA in the absence of chemical substance,"yeast gene YGR142W, cultured two hours with substance",1.3
same,The level of expressed mRNA in the presence of chemical substance/The level of expressed mRNA in the absence of chemical substance,"yeast gene YGR153W, cultured two hours with substance",1.3
same,level of expressed mRNA in the presence of chemical substance / level in the absence of chemical substance,"yeast gene YGR243W, cultured two hours with the chemical substance",0.8
same,level of expressed mRNA in the presence of chemical substance / level in the absence of chemical substance,"yeast gene YGR293C, cultured two hours with the chemical substance",0.7
same,level of expressed mRNA in the presence of chemical substance / level in the absence of chemical substance,"yeast gene YHL006C, cultured two hours with the chemical substance",0.6
same,level of expressed mRNA in the presence of chemical substance / level in the absence of chemical substance,"yeast gene YHR095W, cultured two hours with the chemical substance",0.8
same,level of expressed mRNA in the presence of chemical substance / level in the absence of chemical substance,"yeast gene YHR105W, cultured two hours with the chemical substance",0.9
same,The level of expressed mRNA in the presence of chemical substance/The level of expressed mRNA in the absence of chemical substance,"yeast gene YHR138C, cultured two hours with substance",2.2
same,The level of expressed mRNA in the presence of chemical substance/The level of expressed mRNA in the absence of chemical substance,yeast gene YHR142W,4.8
same,level of expressed mRNA in the presence of chemical substance / level in the absence of chemical substance,"yeast gene YHR181W, cultured two hours with the chemical substance",1.4
same,The level of expressed mRNA in the presence of chemical substance/The level of expressed mRNA in the absence of chemical substance,"yeast gene YIL041W, cultured two hours with substance",1.3
same,The level of expressed mRNA in the presence of chemical substance/The level of expressed mRNA in the absence of chemical substance,"yeast gene YIL060W, cultured two hours with substance",1.3
same,The level of expressed mRNA in the presence of chemical substance/The level of expressed mRNA in the absence of chemical substance,"yeast gene YIL117C, cultured two hours with substance",7.5
same,level of expressed mRNA in the presence of chemical substance / level in the absence of chemical substance,"yeast gene YIL127C, cultured two hours with the chemical substance",0.7
same,The level of expressed mRNA in the presence of chemical substance/The level of expressed mRNA in the absence of chemical substance,"yeast gene YIL143C, DNA repair protein genes, cultured two hours with substance",1.3
same,The level of expressed mRNA in the presence of chemical substance/The level of expressed mRNA in the absence of chemical substance,"yeast gene YIR041W, cultured two hours with the chemical substance",1.3
same,level of expressed mRNA in the presence of chemical substance / level in the absence of chemical substance,"yeast gene YJL017W, cultured two hours with the chemical substance",1.1
same,The level of expressed mRNA in the presence of chemical substance/The level of expressed mRNA in the absence of chemical substance,yeast gene YJL034W (transport facilitation protein gene),7.9
same,level of expressed mRNA in the presence of chemical substance / level in the absence of chemical substance,"yeast gene YJL037W, cultured two hours with the chemical substance",1.6
same,The level of expressed mRNA in the presence of chemical substance/The level of expressed mRNA in the absence of chemical substance,"yeast gene YJL066C, cultured two hours with substance",1.3
same,level of expressed mRNA in the presence of chemical substance / level in the absence of chemical substance,"yeast gene YJL097W, cultured two hours with the chemical substance",1.1
same,The level of expressed mRNA in the presence of chemical substance/The level of expressed mRNA in the absence of chemical substance,"yeast gene YJL108C, cultured two hours with substance",4.0
same,The level of expressed mRNA in the presence of chemical substance/The level of expressed mRNA in the absence of chemical substance,"yeast gene YJL149W, cultured two hours with substance",9.0
